Measured values: the NIST ThermoML archive (doi:10.1021/acs.jced.8b01062)
± gives the expanded uncertainty stated by the source.

Experiments:
[1] = Molar enthalpy of transition or fusion; conditions: Crystal; DSC
[2] = Crystal; DSC

CC#C[C@]1(O)CC[C@H]2[C@@H]3CCC4=CC(=O)CCC4=C3[C@@H](c3ccc(N(C)C)cc3)C[C@@]21C [mifepristone]
Molar enthalpy of transition or fusion [1]: 4.64 ± 0.21 kcal/mol | Triple point temperature [2]: 465.45 ± 0.81 K
